Data as given in paper PMC10076643, “Design, synthesis and anticancer activity studies of 3-(coumarin-3-yl)-acrolein derivatives: Evidenced by integrating network pharmacology and vitro assay” (Frontiers in Pharmacology, 2023).

Experiments:
[1] = tested on: MCF-7 (human breast cancer cell line); assay: MTT antiproliferative assay, MCF-7; format: cell-based; details: MCF7, 72 h
Excerpt: (§1) All the synthesized compounds were screened for in vitro antiproliferative activity against four human cancer cell lines A549 (human lung cancer cell line), KB (human oral epidermoid carcinoma cell line), Hela (human cervical carcinoma cell line), MCF-7 (human breast cancer cell line) and two human normal cell lines HUVEC (human umbilical vein endothelial cell) and LO2 (human normal hepatocytes) through the 3-(4,5-dimethyl-2-thiazolyl)-2,5-diphenyl-2-H-tetrazolium bromide (MTT) assay.
(§2) Non-small-cell lung cancer (A549), oral epidermoid carcinoma (KB), cervical cancer (Hela) and breast cancer (MCF-7) cells were purchased from the American Type Culture Collection (ATCC, America). Human umbilical vein endothelial cell (HUVEC) and human normal hepatocytes (LO2) cells were provided by Guangzhou Medical University (Guangzhou, China). A549 and KB cells were cultured in RMPI-1640 medium (Gibco, America). Hela, MCF-7 and LO2 cells were cultured in DMEM medium (Gibco, America). HUVEC cells were cultured in Ham’s F-12K medium (Gibco, America). All the mediums were supplemented with 10% fetal bovine serum (FBS) (BI, State of Israel), 100 U/mL penicillin and 100 μg/mL streptomycin (Gibco, America), and all the cells were incubated in a sterile incubator at 37°C in an environment of 5% CO2. The tested compounds were dissolved in dimethyl sulfoxide (DMSO) at a concentration of 10 mM, and then diluted into different concentration of solutions by culture medium. The final concentration of DMSO was <0.01% (v/v) in all drug treatment groups to avoid the toxicity in the biological system. Untreated cells were used as a blank control and 5-fluorouracil treated cells were used as a positive control.
(§3) The incubated tumor cells were planted into 96-well plates (4×10^3 cells/well). After 24 h, the cells were adherent to the wall and treated with the compound 6e in different concentrations (0.78, 1.56, 3.12, 6.25, 12.50, 25.00, and 50.00 μM) for 72 h. Afterwards, the medium was supplemented with 10 µL MTT solution. After 4 h, the culture medium was removed and 100 µL DMSO was added. The absorbance was determined at the wavelength of 540 nm and 655 nm using a microplate reader (BioTek Epoch, America). The results were collected from three independent experiments. The IC50 was then calculated by using GraphPad Prism Software (version 7.0) and non-linear regression (curve fit).

[2] = tested on: HUVEC (human umbilical vein endothelial cell); assay: MTT antiproliferative assay, HUVEC normal cells; format: cell-based; details: 72 h
Excerpt: as §1, §2, §3

[3] = tested on: LO2 (human normal hepatocytes); assay: MTT antiproliferative assay, LO2 normal cells; format: cell-based; details: Hepatocyte, 72 h
Excerpt: as §1, §2, §3

[4] = tested on: KB cells; assay: Scratch wound healing assay; format: cell-based, human; details: different concentrations (0.5 IC50, IC50, 2 IC50), after 24 h
Experimental: Wound healing assay and transwell assay were performed to investigate the effect of compound 6e on the migratory capability of KB cells.
In vitro wound-healing assay, KB cells (5 × 10^5 cells/well) were seeded into 6-well plates and incubated at 37 °C in humidified atmosphere with 5% CO2 for 12 h. As the cells were adherent to the wall and the degree of fusion reached more than 90%, cell layers were gently scratched with a 200 μL pipette tip. […] Images of cells were photographed with the inverted fluorescence microscope (Leica DMi8, Germany) at 0 h and 24 h. The areas that were not covered by cells in the scratch wound were quantified by using ImageJ. Then the values obtained in each group were expressed by the percentage of wound closure of cells in the control group. The experiments were performed in triplicate.

[5] = tested on: caspase-3 in KB cells; assay: Western blot, caspase-3; format: cell-based, human; details: 24 h
Excerpt: (§4) Based on the results of network pharmacology, the key proteins related to PI3K/AKT pathway were detected by Western blotting to explore the antitumor mechanism of compound 6e. […] Such an inconsistency might be due to a compensatory increase in PI3K level after the reduction of AKT phosphorylation level. Additionally, the active-caspase 3 protein, anti-apoptosis protein Bcl-2 and pro-apoptosis protein Bax were further analyzed. Caspase-3 normally exists in the cytoplasm as zymogen. During the early stage of apoptosis, caspase-3 (32 KD) is cleaved to the active 17-kD caspase-3 fragment, which is responsible for morphological and biochemical changes in apoptosis. Bcl-2 and Bax are the […] located on the mitochondrial membrane and capable of controlling the MMP (ΔΨm) and the activation of caspase cascade.
(§5) A total of 4 × 10^5 KB cells were seeded into 6-well and grown for overnight. Then the cells adherent to the wall were treated with compound 6e in different concentrations (0, 0.40, 0.80, 1.60 μM) for 24 h. After that, cells were collected, SDS lysate, 100X protease inhibitor and 50X phosphorylation inhibitor were added in a certain proportion to lyse the cells. The protein content was determined by BCA reagent (Beyotime, China) according to the standard curve. […]

[6] = tested on: Bcl-2 in KB cells; assay: Western blot, Bcl-2; format: cell-based, human; details: 0.40 μM, 24 h
Excerpt: as §4, §5

[7] = tested on: Bax in KB cells; assay: Western blot, Bax; format: cell-based, human; details: 0.40 μM, 24 h
Excerpt: as §4, §5

Molecule `O=CC=C(Cl)c1cc2ccc(OCc3ccccc3)cc2oc1=O` [Compound 6e, 3-(7-(Benzyloxy)-2-oxo-2H-chromen-3-yl)-3-chloroacrylaldehyde] has an IC50 [1] of 14.8 ± 0.28 µM, an IC50 [2] of 25.26 ± 0.2 µM and an IC50 [3] of 50.13 ± 0.03 µM. The “scratched gaps of KB cells” value [4] was “wider than that of the control group and 5-FU group”, the “ratio of cleaved caspase-3 to caspase-3” value ([5]; 0.80 μM) was “increased” and the “expression of the cleaved 17-kD caspase-3” value ([5]; 1.60 μM) was “upregulated”. The “expression of Bcl-2 compared with the control group” value [6] was “visibly decreased”, the “proportion of Bcl-2 to Bax” value [6] was “decrease” and the “expression of Bax compared with the control group” value [7] was “upregulated”.
